Entries after “also recorded” stand apart in the source; their conditions may differ.

One data set deals with OCI-AML3 cells. Put plainly: Induction of apoptosis by cleaved caspase-3 cytometry, combination with IAP antagonist. In kind it is cell-based, human. Particulars: 0.1 μM Compound 1 with 1 μM ASTX660 and 1 ng/ml TNF-alpha, 72 h.
The next data set deals with SN40R2. Briefly: Protocol A: SN40R2 growth inhibition, sulphorhodamine B (SRB) method. The settings on record: 72 h, read-out: SN40R2 IC50 (Protocol A).
The test system of the next data set is cancer cell lines. Particulars: cited from earlier work.
Data set [1] relates to multiple myeloma (MM) cells. Particulars: in vitro and ex vivo; cited from earlier work.
Another data set concerns MV4-11 cells. Put plainly: Alamar Blue proliferation assay, MV4-11 overexpressing SKP2 vs control. Format: cell-based, human. Particulars: MV4-11 SKP2 OE compared to control. Here is the method: Precision LentiORF Transduction:
Precision LentiORF Lentiviral Transduction Particles (Cat. OHS5900-224629438, Dharmacon, UK) were used to overexpress SKP2 in the MV4-11 AML cell line. Stable gene overexpression was established by cellular resistance to blasticidin (5 μg/ml) and was confirmed at the protein level by western blot. The Precision LentiORF control empty vector (Dharmacon, UK) served as a negative control.
The number of viable cells was determined by Alamar Blue assay (Bio-Rad, Irvine, CA, USA). All cell lines were grown and assayed in RPMI-1640+10% FBS medium.
Compounds were diluted first in DMSO and then into serum-free medium, before addition to triplicate wells of the cultured cells to give a 0.1% DMSO final concentration. […] Twenty μl of Alamar Blue™ (AbD Serotec/Bio-Rad) was added to each well and plates were then incubated for 4-6 h at 37° C. in an atmosphere of 5% CO2 and air. Plates were then read at 535 nm (excitation) and 590 nm (emission) on a SpectraMax Gemini reader (Molecular Devices, San Jose, CA, USA).
In general terms: Resazurin is reduced to fluorescent resorufin, in cell work by metabolically active cells.

Another data set deals with human leukaemia models. The settings on record: by inducing MDM2 degradation; cited from earlier work.
The next data set has as its system tumour growth. The settings on record: inducing mitochondrial effects of p53; cited from earlier work.

Procedure for OCI-AML3 cells: Cleaved caspase-3 staining was recorded in the FL1 (green) channel, with unstained and DMSO control wells being used to set the gated stained and unstained cell populations—allowing the percentage of cells that are apoptotic to be calculated.
Procedure for SN40R2: Following incubation with the SRB dye at room temperature for 30 min, the plates were washed with 1% acetic acid and left to dry. […] The GI50 was calculated by non-linear regression analysis of the data using Prism v4.0 statistical software.

Turning to `C[C@@H]1CN(CC(=O)N2CC(C)(C)c3nc(CO)c(Cc4ccc(F)cc4)cc32)[C@@H](CN2CCOC[C@H]2C)CN1` [ASTX660, 1-{6-[(4-fluorophenyl)methyl]-5-(hydroxymethyl)-3,3-dimethyl-1H,2H,3H-pyrrolo[3,2-b]pyridin-1-yl}-2-[(2R,5R)-5-methyl-2-{[(3R)-3-methylmorpholin-4-yl]methyl}piperazin-1-yl]ethan-1-one, reference compound], in the data set with OCI-AML3 cells, the “level of apoptosis (cleaved caspase-3), combination” value is listed as “sensitises”. One may read the IC50 as the point on the concentration scale where inhibition reaches its midpoint. Regarding `CC(O)(CN1CCNCC1)c1cc(F)c2c(c1)C(=O)N(Cc1ccc(Cl)cc1S(C)(=O)=O)[C@@]2(OCC1(CO)CC1)c1ccc(Cl)cc1` (stereo partly drawn) [Example 43, (3R)-2-[(4-chloro-2-methanesulfonylphenyl)methyl]-3-(4-chlorophenyl)-4-fluoro-6-[2-hydroxy-1-(piperazin-1-yl)propan-2-yl]-3-{[1-(hydroxymethyl)cyclopropyl]methoxy}-2,3-dihydro-1H-isoindol-1-one], in the data set on SN40R2, the IC50 was found to be 2 µM. As to `CC(C)(C)C[C@@H]1N[C@@H](C(=O)N[C@H]2CC[C@H](O)CC2)[C@H](c2cccc(Cl)c2F)[C@]12C(=O)Nc1cc(Cl)ccc12` [MI-773], in the data set with cancer cell lines, the “cell growth in cancer cell lines” value is “potently inhibits cell growth”. In the case of `c1ccc2c(CCNc3ccc(Nc4ccncc4)cc3)c[nH]c2c1` [JNJ 26854165], in data set [1], the “activity against multiple myeloma (MM) cells” value is given as “potent activity”. Take `CC1(C)CCC(CN2CCN(c3ccc(C(=O)NS(=O)(=O)c4ccc(NCC5CCOCC5)c([N+](=O)[O-])c4)c(Oc4cnc5[nH]ccc5c4)c3)CC2)=C(c2ccc(Cl)cc2)C1` [ABT-199, reference compound]: the “effect of SKP2 overexpression on cytotoxicity / sensitivity” value in the data set on MV4-11 cells is on record as “does not modulate sensitivity; also recorded: no difference”.

On to `CC(C)(O)c1ccc2c(c1)C(=O)N(Cc1ccc(Cl)cc1)[C@@]2(OCC1(CO)CC1)c1ccc(Cl)cc1` [Example 1, (3R)-3-(4-chlorophenyl)-2-[(4-chlorophenyl)methyl]-3-{[1-(hydroxymethyl)cyclopropyl]methoxy}-6-(2-hydroxypropan-2-yl)-2,3-dihydro-1H-isoindol-1-one], for which the IC50 in the data set on SN40R2 turned out to be 7.5 µM. Turning to `O=C(O)C(F)(F)F.O=C1CCC(N2Cc3c(C#CCCCNC(=O)c4ccc(NC(=O)[C@@H]5NC6(CCCCC6)[C@@]6(C(=O)Nc7cc(Cl)ccc76)[C@H]5c5ccnc(Cl)c5F)cc4)cccc3C2=O)C(=O)N1` (stereo partly drawn) [LE-004], the “growth of human leukaemia models in mice” value with human leukaemia models was “efficiently inhibited growth”. `CC(C)(O)c1cc(F)c2c(c1)C(=O)N(Cc1ccc(Cl)cc1)[C@@]2(OCC1(CO)CC1)c1ccc(Cl)cc1` [Example 2, (3R)-3-(4-chlorophenyl)-2-[(4-chlorophenyl)methyl]-4-fluoro-3-{[1-(hydroxymethyl)cyclopropyl]methoxy}-6-(2-hydroxypropan-2-yl)-2,3-dihydro-1H-isoindol-1-one]: the concentration for half-maximal inhibition (IC50) in the data set on SN40R2 was determined as 17 µM. On to `COC1CC(C(N)=O)CCC1NC(=O)[C@@H]1N[C@@H](CC(C)(C)C)[C@@]2(C(=O)Nc3cc(Cl)ccc32)[C@H]1c1cccc(Cl)c1F` (stereo partly drawn) [RO-8994], for which the tumour growth entry with tumour growth is on record as “inhibit tumour growth”.

Source of the values: US20230313313A1, “BIOMARKERS FOR CANCER THERAPY USING MDM2 ANTAGONISTS” (OTSUKA PHARMACEUTICAL CO., LTD., priority 2020, published 2023).
